# Experimental data from patent US8222297B2, “Aniline or phenol mustards linked to DNA-affinic molecules or water-soluble aromatic rings and their use as cancer therapeutic agents” (Academia Sinica, priority 2007, dated 2012).
# Like-named read-outs stand apart in the source and are kept apart here.
# Tests used:
# [1] = system: CCRF-CEM human lymphoblastic leukemia cells; assay: In vitro cytotoxicity, XTT assay
# CCRF-CEM/Taxol = assay: In vitro cytotoxicity, XTT assay, taxol-resistant subline; conditions: for IC50: Homo sapiens, CCRF-CEM, 72 h, read-out: IC50 CCRF-CEM/Taxol, XTT assay, 72-hr incubation; for fold of cross-resistant, CCRF-CEM/Taxol vs IC50 of parent cell line: number in brackets
# [2] = system: human mammary carcinoma MX-1 xenograft; assay: Antitumor therapeutic effect in nude mice bearing MX-1 xenograft; type: in vivo; conditions: for Tumor remission achieved: doses and schedules as in Table 2 (30-150 mg/kg, i.v.); for log cell kill: estimated by Eq. 4 from remission time; for Duration complete remission maintained without relapse: one cycle 5-dose-treatment, 3 out of 3 mice
# Procedure: (§1) Athymic nude mice bearing the nu/nu gene were used for human breast tumor MX-1 xenograft (FIGS. 3 and 4) and human brain glioma U87 GM xenograft (FIG. 5). Nude mice were obtained from National Cancer Institute, Frederick, Md. Male mice 6 weeks old or older weighing 22 g or more were used for experiments with subcutaneous tumor inoculation as described previously.^62 Drug was administrated via the tail vein by iv injection. Tumor volumes were assessed by measuring length×width×height (or width) by using caliper. Vehicle used was 20 μL DMSO in 180 μL saline. All animal studies were conducted in accordance with the guidelines of the U.S. National Institutes of Health Guide for the Care and Use of Animals and the protocol approved by the Institutional Animal Care and Use Committee.
# (§2) Animals. Athymic nude mice bearing the nu/nu gene were obtained from NCI, Frederick, Md. and used for all human tumor xenografts. Male nude mice 6 weeks or older weighing 20-24 g or more were used. Compounds were administered via the tail vein for i.v. injection or infusion as described previously.^59 A typical formulation for chemotherapeutic studies for each drug was dissolved in DSMO to make a 25 mg/ml fresh solution, 0.4 ml of this solution was mixed with 0.3 ml of Tween 80, plus 1.3 ml to make 2 ml of 5 mg/ml solution. Bolus injection volume was 0.1-0.2 ml per mouse. Tumor volume was assessed by measuring length×width×height (or width) by using a caliper. For tumor-bearing nude mice during the course of the experiment, the body weight refers to total weight minus the weight of the tumor. All animal studies were conducted in accordance with the guidelines for the National Institute of Health Guide for the Care and Use of Animals and the protocol approved by the Institutional Animal Care and Use Committee.
# The therapeutic effects of a drug against human tumor xenografts in nude mice, under the optimal therapeutic conditions but without any lethality due to drug toxicity, the following degrees of therapeutic effects are defined and calculated by the following formula:
# [formula] • where T0 is the initial tumor size (in mm^3) at beginning of drug treatment; • Tc is tumor size of untreated control group on a given date; and • Tx is tumor size of the drug treated group on a given date.
# [formula] • Where T0 and Tx are as specified as above. • Tumor disappearance (complete remission or CR) is defined by the effect where [Tx=0] for a period of time (in days) for a proportion of animals (NCR/N), where N is the total number of animals in the group, and NCR is the number of mice in the group that achieved CR. • Tumor relapse is quantitatively calculated by [The Day tumor relapsed(Drelp)−The Day CR achieved(DCR)] (Eq. 3) • for a proportion of animals (Nrelp/N) where N is the total number of animals in the group, and Nrelp is the number of the mice in the group that relapsed. • The log cell kill (LCK) of the tumor tissue after a given chemotherapy that reached CR is estimated by: LCK=log [2^(Tumor remission in days/Tumor doubling time in days)] (Eq. 4)
# [3] = system: Human mammary carcinoma (MX-1) tumor cells; assay: In vitro cytotoxicity, SRB assay
# [4] = system: human glioma U87 GM s.c. xenograft; assay: Therapeutic effect in nude mice bearing U87 glioma xenograft; type: in vivo
# Procedure: as §1
# The therapeutic effects of N-mustard compounds, BO-1049, 1051 and 1055, against human glioma U87 GM s.c. xenograft in nude mice were given in FIG. 5, A and B. U87 glioma is known to be refractory tumor that can not be effectively treated with cell-cycle specific anti-tumor drugs such as taxol, epothilones, or arabinosylcytosine. However, cell-cycle non-specific drugs such as alkylating agent, cyclophosphamide or BCNU, yields better therapeutic results. […] However, upon 6 days of recession of treatment with BO-1049 or BO-1055, the tumor began to regrow.
# as §2
# MX-1 cells = assay: Inhibition of biosynthesis of DNA, RNA and protein (tracer incorporation); type: cell-based, human; conditions: for degrees of inhibiting biosynthesis of DNA and RNA, maximized: [3H]thymidine / [3H]adenosine incorporation; for persistence of inhibition of biosynthesis: printed 'over 6-24 hrs'
# Procedure: [^3H]Thymidine (1 uCi), [^3H]adenosine (1 μCi) and [^3H]leucine (2 μCi) were used as the tracers for incorporation into DNA, RNA and protein, respectively. […] Incubation was terminated at each time points as indicated. For details of the method see Chou et al. Cancer Research 43: 3074-3079, 1983. […] The half-maximal inhibition was reached within 15-30 min and persisted for over 6-24 hrs.
# [5] = system: Human colon carcinoma HCT-116 cells; assay: In vitro cytotoxicity, SRB assay
# [6] = Homo sapiens, CCRF-CEM, 72 h, read-out: IC50 CCRF-CEM, XTT assay, 72-hr incubation
# [7] = read-out: IC50 CCRF-CEM, XTT assay, 72-hr incubation
# [8] = Homo sapiens, 72 h, read-out: IC50 MX-1, SRB assay, 72-hr incubation
compound,measurement,setting,value
"O=C(Nc1ccc(N(CCCl)CCCl)cc1)Nc1c2ccccc2nc2ccccc12 [BO-1034, 1-Acridin-9-yl-3{4-[bis(2-chloroethyl)amino]phenyl}urea]",IC50,[1]; [6],198 nM
same,IC50,CCRF-CEM/Taxol,418 nM
same,"fold of cross-resistant, CCRF-CEM/Taxol vs IC50 of parent cell line",CCRF-CEM/Taxol,2.1 x
"Cc1ccc(Nc2c3ccccc3nc3c(C)cccc23)cc1NC(=O)Oc1ccc(N(CCCl)CCCl)cc1 [BO-1064, [2-Methyl-5-(4-methylacridin-9-ylamino)phenyl]carbamic acid 4-[bis(2-chloro-ethyl)amino]phenyl ester]",IC50,[1]; [6],116 nM
same,Tumor remission achieved,[2],complete tumor remission
same,"fold of cross-resistant, CCRF-CEM/Taxol vs IC50 of parent cell line",CCRF-CEM/Taxol,1.4 x
"CCOC(=O)Nc1cc(COC(=O)Oc2ccc(N(CCCl)CCCl)cc2)cc(Nc2c3ccccc3nc3ccccc23)c1 [BO-1065, Carbonic acid 3-(acridin-9-ylamino)-5-ethoxycarbonylaminobenzyl ester 4-[bis(2-chloroethyl)amino]phenyl ester]",Remark (tolerability of dose),"[2]; 100 mg/kg, QD × 3, i.v.",Too high dose
"Cc1ccc(NC(=O)Nc2ccc(N(CCCl)CCCl)cc2)cc1Nc1c2cccc(C)c2nc2c(C(=O)NCCN(C)C)cccc12 [BO-1053, 9-[5-(3-{4-[Bis(2-chloroethyl)amino]phenyl}ureido)-2-methylphenylamino]-5-methylacridine-4-carboxylic acid (2-dimethylaminoethyl)amide]",IC50,[1]; [7],12 nM
same,Remark (tolerability of dose),"[2]; 70 mg/kg, Q2D × 5, i.v.",Too high dose
same,Tumor remission achieved,[2],complete tumor remission
same,"fold of cross-resistant, CCRF-CEM/Taxol vs IC50 of parent cell line",CCRF-CEM/Taxol,15.3 x
"COc1cc(NC(=O)Oc2ccc(N(CCCl)CCCl)cc2)cc(Nc2c3ccccc3nc3ccccc23)c1 [BO-1066, [3-(Acridin-9-ylamino)-5-methoxyphenyl]carbamic acid 4-[bis(2-chloroethyl)-amino]phenyl ester]",Tumor remission achieved,[2],complete tumor remission
same,"fold of cross-resistant, CCRF-CEM/Taxol vs IC50 of parent cell line",CCRF-CEM/Taxol,1.5 x
"O=C(Nc1ccc(N(CCCl)CCCl)cc1)Nc1cc(CO)cc(Nc2c3ccccc3nc3ccccc23)c1 [BO-1037, 1-[3-(Acridin-9-ylamino)-5-hydroxymethylphenyl]-3-{4-[bis(2-chloroethyl)amino]phenyl}-urea]",IC50,[1]; [6],54.5 nM
same,Tumor remission achieved,[2],CR in parts of the mice
"Cc1cccc2c(Nc3cc(CO)cc(NC(=O)Nc4ccc(N(CCCl)CCCl)cc4)c3)c3ccccc3nc12 [BO-1050, 1-{4-[bis(2-chloroethyl)amino]phenyl}-3-[3-hydroxymethyl-5-(4-methylacridin-9-ylamino)phenyl]urea]",IC50,[1]; [6],30 nM
same,IC50,[3]; [8],128 nM
same,Tumor remission achieved,[2],CR in parts of the mice
same,log cell kill,[2],> 4.1
same,Duration complete remission maintained without relapse,[2],over 70 days
same,"fold of cross-resistant, CCRF-CEM/Taxol vs IC50 of parent cell line",CCRF-CEM/Taxol,12.8 x
Cc1ccc(Nc2c3ccccc3nc3c(C)cccc23)cc1NC(=O)Nc1ccc(N(CCCl)CCCl)cc1 [BO-1051],IC50,[1]; [6],74 nM
same,IC50,[3]; [8],174 nM
same,tumor-growth suppression,"[4]; 100 mg/kg, Q2D×5, i.v.-injection, n=3",complete tumor-growth suppression
same,tumor size as % of original tumor size,"[4]; 100 mg/kg, Q2D×5, n=3, one cycle, observed 10 and 12 days after last dose on Day 16",18%
same,therapeutic effect compared with cyclophosphamide,"[4]; BO-1049 150, BO-1051 100, BO-1055 30 mg/kg vs cyclophosphamide 80 mg/kg, all Q2D×5, parallel study",superior therapeutic effects than cyclophosphamide
same,Tumor remission achieved,[2],complete tumor remission
same,log cell kill,[2],> 4.1
same,Duration complete remission maintained without relapse,[2],over 70 days
same,delay in reaching maximal effect on DNA and RNA biosynthesis,MX-1 cells; 10 μM,about 1 hr
same,time to half-maximal inhibition of biosynthesis,MX-1 cells; 10 μM,15 to 30 min
same,"degrees of inhibiting biosynthesis of DNA and RNA, maximized",MX-1 cells; 10 μM,50-80%
same,persistence of inhibition of biosynthesis,MX-1 cells; 10 μM,6 to 24 h
same,inhibition at 10 µM,"MX-1 cells; Homo sapiens, MX1, 0.5 h, after initial activation within the first 30 min, read-out: protein synthesis: moderate inhibition following initial activation",~20%
"CCOC(=O)Nc1cc(COC(=O)Nc2ccc(N(CCCl)CCCl)cc2)cc(Nc2c3ccccc3nc3ccccc23)c1 [BO-1054, (3-(Acridin-9-ylamino)-5-{4-[bis(2-chloroethyl)amino]phenylcarbamoyloxymethyl}-phenyl)carbamic acid ethyl ester]",IC50,"[5]; read-out: IC50 HCT-116, SRB assay, 72-hr incubation",757 nM
same,IC50,[1]; [7],84 nM
same,IC50,"[3]; read-out: IC50 MX-1, SRB assay, 72-hr incubation",605 nM
"Cc1cc(NC(=O)Nc2ccc(N(CCCl)CCCl)cc2)c2ccccc2n1 [BO-1038, 1-{4-[Bis(2-chloroethyl)amino]phenyl}-3-(2-methyl-quinolin-4-yl)urea]",IC50,"[5]; Homo sapiens, HCT-116, 72 h, read-out: IC50 HCT-116, SRB assay, 72-hr incubation",1240 nM
same,Tumor remission achieved,[2],complete tumor remission
same,log cell kill,[2],> 4.1
same,Duration complete remission maintained without relapse,[2],over 70 days
same,"fold of cross-resistant, CCRF-CEM/Taxol vs IC50 of parent cell line",CCRF-CEM/Taxol,2.2 x
same,time to half-maximal inhibition of biosynthesis,MX-1 cells; 10 μM,15 to 30 min
same,"degrees of inhibiting biosynthesis of DNA and RNA, maximized",MX-1 cells; 10 μM,50-80%
same,persistence of inhibition of biosynthesis,MX-1 cells; 10 μM,6 to 24 h
"O=C(Nc1cc(CO)cc(Nc2c3ccccc3nc3ccccc23)c1)Oc1ccc(N(CCCl)CCCl)cc1 [BO-1062, [3-(Acridin-9-ylamino)-5-hydroxymethylphenyl]carbamic acid 4-[bis(2-chloro-ethyl)amino]phenyl ester]",IC50,[1]; [6],57 nM
same,Tumor remission achieved,[2],complete tumor remission
same,IC50,CCRF-CEM/Taxol,112 nM
same,"fold of cross-resistant, CCRF-CEM/Taxol vs IC50 of parent cell line",CCRF-CEM/Taxol,2.0 x
"Cc1cccc2c(Nc3cc(CO)cc(NC(=O)Oc4ccc(N(CCCl)CCCl)cc4)c3)c3ccccc3nc12 [BO-1063, [3-Hydroxymethyl-5-(4-methylacridin-9-ylamino)phenyl]carbamic acid 4-[bis(2-chloroethyl)amino]phenyl ester]",IC50,[1]; [6],75 nM
same,Remark (tolerability of dose),"[2]; 100 mg/kg, QD × 3, i.v.",Too high dose
same,IC50,CCRF-CEM/Taxol,81 nM
same,"fold of cross-resistant, CCRF-CEM/Taxol vs IC50 of parent cell line",CCRF-CEM/Taxol,1.1 x
